Data published in PubChem BioAssay (NCI).
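Each compound was tested at five concentrations against cells in 96-well plates for 48 hours. GI50: concentration for 50% inhibition of growth. Definition used: TGI = concentration required for complete inhibition of growth.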

How the values were obtained:
Assay in all cases: inhibition of tumour cell growth, NCI panel, 48 h
786-0 renal = tested on: 786-0 renal
A498 renal = tested on: A498 renal
A549 NSCLC = tested on: A549 NSCLC
ACHN renal = tested on: ACHN renal
BT-549 breast = tested on: BT-549 breast
CAKI-1 renal = tested on: CAKI-1 renal
CCRF-CEM leukemia = tested on: CCRF-CEM leukemia
COLO 205 colon = tested on: COLO 205 colon
DU-145 prostate = tested on: DU-145 prostate
EKVX NSCLC = tested on: EKVX NSCLC
HCC-2998 colon = tested on: HCC-2998 colon
HCT-116 colon = tested on: HCT-116 colon
HCT-15 colon = tested on: HCT-15 colon
HL-60(TB) leukemia = tested on: HL-60(TB) leukemia
HOP-62 NSCLC = tested on: HOP-62 NSCLC
HOP-92 NSCLC = tested on: HOP-92 NSCLC
HS 578T breast = tested on: HS 578T breast
HT29 colon = tested on: HT29 colon
K-562 leukemia = tested on: K-562 leukemia
KM12 colon = tested on: KM12 colon
LOX IMVI melanoma = tested on: LOX IMVI melanoma
M14 melanoma = tested on: M14 melanoma
MALME-3M melanoma = tested on: MALME-3M melanoma
MCF7 breast = tested on: MCF7 breast
MDA-MB-231 breast = tested on: MDA-MB-231 breast
MDA-MB-435 = tested on: MDA-MB-435
MOLT-4 leukemia = tested on: MOLT-4 leukemia
NCI-H226 lung = tested on: NCI-H226 lung
NCI-H23 lung = tested on: NCI-H23 lung
NCI-H460 lung = tested on: NCI-H460 lung
NCI-H522 lung = tested on: NCI-H522 lung
NCI/ADR-RES ovarian = tested on: NCI/ADR-RES ovarian
OVCAR-3 ovarian = tested on: OVCAR-3 ovarian
OVCAR-4 ovarian = tested on: OVCAR-4 ovarian
OVCAR-5 ovarian = tested on: OVCAR-5 ovarian
OVCAR-8 ovarian = tested on: OVCAR-8 ovarian
PC-3 prostate = tested on: PC-3 prostate
RPMI-8226 leukemia = tested on: RPMI-8226 leukemia
RXF 393 renal = tested on: RXF 393 renal
SF-268 CNS = tested on: SF-268 CNS
SF-295 CNS = tested on: SF-295 CNS
SF-539 CNS = tested on: SF-539 CNS
SK-MEL-2 melanoma = tested on: SK-MEL-2 melanoma
SK-MEL-28 melanoma = tested on: SK-MEL-28 melanoma
SK-MEL-5 melanoma = tested on: SK-MEL-5 melanoma
SK-OV-3 ovarian = tested on: SK-OV-3 ovarian
SN12C renal = tested on: SN12C renal
SNB-19 CNS = tested on: SNB-19 CNS
SNB-75 CNS = tested on: SNB-75 CNS
SR leukemia = tested on: SR leukemia
SW-620 colon = tested on: SW-620 colon
T-47D breast = tested on: T-47D breast
TK-10 renal = tested on: TK-10 renal
U251 CNS = tested on: U251 CNS
UACC-257 melanoma = tested on: UACC-257 melanoma
UACC-62 melanoma = tested on: UACC-62 melanoma
UO-31 renal = tested on: UO-31 renal

Compound `CN(C)CCNC(=O)Nc1c(C#N)[n+]([O-])c2cc(Cl)c(Cl)cc2[n+]1[O-]` has a GI50 (786-0 renal) of 35.8 µM, a TGI (786-0 renal) greater than 100 µM and a GI50 (A498 renal) of 51.6 µM. For the same compound, the TGI (A498 renal) was greater than 100 µM, the GI50 (A549 NSCLC) was 34 µM and the TGI (A549 NSCLC) was greater than 100 µM. It also gave a GI50 (ACHN renal) of 32.9 µM, a TGI (ACHN renal) greater than 100 µM and a GI50 (BT-549 breast) of 10.7 µM. The TGI (BT-549 breast) was 39.8 µM, the GI50 (CAKI-1 renal) was 37.6 µM and the TGI (CAKI-1 renal) was greater than 100 µM. For the same compound, the GI50 (CCRF-CEM leukemia) was 6.88 µM, the TGI (CCRF-CEM leukemia) was greater than 100 µM and the GI50 (COLO 205 colon) was 16.1 µM. It also gave a TGI (COLO 205 colon) of 46.3 µM, a GI50 (DU-145 prostate) of 25.4 µM and a TGI (DU-145 prostate) greater than 100 µM. The GI50 (EKVX NSCLC) was 36.8 µM, the TGI (EKVX NSCLC) was greater than 100 µM and the GI50 (HCC-2998 colon) was 27.4 µM. The TGI (HCC-2998 colon) was greater than 100 µM, the GI50 (HCT-116 colon) was 13.4 µM and the TGI (HCT-116 colon) was greater than 100 µM. It also gave a GI50 (HCT-15 colon) of 41.4 µM, a TGI (HCT-15 colon) greater than 100 µM and a GI50 (HL-60(TB) leukemia) of 27.2 µM. The TGI (HL-60(TB) leukemia) was greater than 100 µM, the GI50 (HOP-62 NSCLC) was 34.2 µM and the TGI (HOP-62 NSCLC) was greater than 100 µM. The GI50 (HOP-92 NSCLC) was 18.1 µM, the TGI (HOP-92 NSCLC) was 99 µM and the GI50 (HS 578T breast) was 33.4 µM. The TGI (HS 578T breast) was greater than 100 µM, the GI50 (HT29 colon) was 27.3 µM and the TGI (HT29 colon) was greater than 100 µM. For the same compound, the GI50 (K-562 leukemia) was 29.3 µM, the TGI (K-562 leukemia) was greater than 100 µM and the GI50 (KM12 colon) was 13.3 µM. The TGI (KM12 colon) was 43.1 µM, the GI50 (LOX IMVI melanoma) was 18.3 µM and the TGI (LOX IMVI melanoma) was greater than 100 µM. For the same compound, the GI50 (M14 melanoma) was 21.9 µM, the TGI (M14 melanoma) was greater than 100 µM and the GI50 (MALME-3M melanoma) was 21.6 µM. It also gave a TGI (MALME-3M melanoma) greater than 100 µM, a GI50 (MCF7 breast) of 18.5 µM and a TGI (MCF7 breast) greater than 100 µM. The GI50 (MDA-MB-231 breast) was 19.9 µM, the TGI (MDA-MB-231 breast) was 56.9 µM and the GI50 (MDA-MB-435) was 31 µM. The TGI (MDA-MB-435) was greater than 100 µM, the GI50 (MOLT-4 leukemia) was 3.92 µM and the TGI (MOLT-4 leukemia) was 20.9 µM. For the same compound, the GI50 (NCI-H226 lung) was 22.3 µM, the TGI (NCI-H226 lung) was greater than 100 µM and the GI50 (NCI-H23 lung) was 27 µM. It also gave a TGI (NCI-H23 lung) greater than 100 µM, a GI50 (NCI-H460 lung) of 21.1 µM and a TGI (NCI-H460 lung) greater than 100 µM. It also gave a GI50 (NCI-H522 lung) of 13.1 µM, a TGI (NCI-H522 lung) of 35.3 µM and a GI50 (NCI/ADR-RES ovarian) greater than 100 µM. The TGI (NCI/ADR-RES ovarian) was greater than 100 µM, the GI50 (OVCAR-3 ovarian) was 21.4 µM and the TGI (OVCAR-3 ovarian) was 57 µM. For the same compound, the GI50 (OVCAR-4 ovarian) was 17.8 µM, the TGI (OVCAR-4 ovarian) was greater than 100 µM and the GI50 (OVCAR-5 ovarian) was 87.1 µM. The TGI (OVCAR-5 ovarian) was greater than 100 µM, the GI50 (OVCAR-8 ovarian) was 21.4 µM and the TGI (OVCAR-8 ovarian) was greater than 100 µM. The GI50 (PC-3 prostate) was 18.4 µM, the TGI (PC-3 prostate) was greater than 100 µM and the GI50 (RPMI-8226 leukemia) was 8.65 µM. For the same compound, the TGI (RPMI-8226 leukemia) was greater than 100 µM, the GI50 (RXF 393 renal) was 47.9 µM and the TGI (RXF 393 renal) was greater than 100 µM. For the same compound, the GI50 (SF-268 CNS) was 9.47 µM, the TGI (SF-268 CNS) was greater than 100 µM and the GI50 (SF-295 CNS) was 15 µM. The TGI (SF-295 CNS) was 84.8 µM, the GI50 (SF-539 CNS) was 18.9 µM and the TGI (SF-539 CNS) was 47.3 µM. For the same compound, the GI50 (SK-MEL-2 melanoma) was 15.9 µM, the TGI (SK-MEL-2 melanoma) was 50.6 µM and the GI50 (SK-MEL-28 melanoma) was 34.3 µM. It also gave a TGI (SK-MEL-28 melanoma) greater than 100 µM, a GI50 (SK-MEL-5 melanoma) of 14.3 µM and a TGI (SK-MEL-5 melanoma) of 38.1 µM. It also gave a GI50 (SK-OV-3 ovarian) of 21.1 µM, a TGI (SK-OV-3 ovarian) of 97.7 µM and a GI50 (SN12C renal) of 17.2 µM. It also gave a TGI (SN12C renal) greater than 100 µM, a GI50 (SNB-19 CNS) of 27.8 µM and a TGI (SNB-19 CNS) greater than 100 µM. The GI50 (SNB-75 CNS) was 14.7 µM, the TGI (SNB-75 CNS) was greater than 100 µM and the GI50 (SR leukemia) was 13.4 µM. The TGI (SR leukemia) was greater than 100 µM, the GI50 (SW-620 colon) was 17.4 µM and the TGI (SW-620 colon) was 69.7 µM. The GI50 (T-47D breast) was 14.6 µM, the TGI (T-47D breast) was greater than 100 µM and the GI50 (TK-10 renal) was 53.7 µM. It also gave a TGI (TK-10 renal) greater than 100 µM, a GI50 (U251 CNS) of 14.5 µM and a TGI (U251 CNS) greater than 100 µM. It also gave a GI50 (UACC-257 melanoma) of 36.5 µM, a TGI (UACC-257 melanoma) greater than 100 µM and a GI50 (UACC-62 melanoma) of 10.2 µM. For the same compound, the TGI (UACC-62 melanoma) was 66.5 µM, the GI50 (UO-31 renal) was 45 µM and the TGI (UO-31 renal) was greater than 100 µM.
